The results in this text go back to patent US20060223996A1, “IL-12 modulatory compounds” (Synta Pharmaceuticals Corp., priority 2004, published 2006).

In this assay the test system is IL-12. In words: Human in vitro assay: inhibition of IL-12 production in IFNγ/LPS- or IFNγ/SAC-stimulated human PBMC or THP-1 cells (ELISA). The following applies: read-out: IC50 Range (representative in vitro IC50 data). The class given is cell-based. From the text:
The biological activities of a heterocyclic compound can be evaluated by a number of cell-based assays. One of such assays can be conducted using cells from human peripheral blood mononuclear cells (PBMC) or human monocytic cell line (THP-1). The cells are stimulated with a combination of human interferon-γ (IFNγ) and lipopolysaccharide or a combination of IFNγ and Staphylococcus aureus Cowan I in the presence of a test compound. The level of inhibition of IL-12 production can be measured by determining the amount of p70 by using a sandwich ELISA assay with anti-human IL-12 antibodies. IC50 of the test compound can then be determined. Specifically, PBMC or THP-1 cells are incubated with the test compound. Cell viability was assessed using the bioreduction of MTS [3-(4,5-dimethylthiazol-2-yl)-5-(3-carboxymethoxyphenyl)-2-(4-sulfophenyl)-2H-tetrazolium](Promega, Madison, Wis.).
Human In Vitro Assay. Human PBMC were isolated by centrifugation using Ficoll-Paque (Pharmacia Biotech, Uppsala, Sweden) and prepared in RPMI medium supplemented with 10% fetal calf serum (FCS), 100 U/mL penicillin, and 100 μg/mL streptomycin. PBMC were plated in wells of a 96-well plate at a concentration of 5×10^5 cells/well, and primed by adding IFNγ (30 U/mL) for 22 h and stimulated by adding LPS (1 μg/mL), or by adding IFNγ (100 U/mL) and then stimulated by adding SAC (0.01%). A test pyrimidine compound was dissolved in DMSO, and added to wells of the 96-well plate. The final DMSO concentration was adjusted to 0.25% in all cultures, including the compound-free control. Human THP-1 cells were plated in wells, primed by adding IFNγ (100 U/mL) for 22 h and stimulated by adding SAC (0.025%) in the presence of different concentrations of the pyrimidine compound. Cell-free supernatants were taken 18 h later for measurement of cytokines. Cell viability was assessed using the bioreduction of MTS. Cell survival was estimated by determining the ratio of the absorbance in compound-treated groups versus compound-free control.
The supernatant was assayed for the amount of IL-12p40, IL-12p70, or IL-10 by using a sandwich ELISA with anti-human antibodies, i.e., a Human IL-12 p40 ELISA kit from R&D Systems (Berkeley, Calif.), and a Human IL-12 p70 or IL-10 ELISA kit from Endogen (Cambridge, Mass.). Assays were based on the manufacturer's instructions.
The biological activities of pyrimidine compounds were tested on human PBMC or THP-1 cells.

SMILES strings stand for the structures. A value given as a limit tells only on which side of the number the result lay.

Take `Cc1[nH]c2ccc(NC(=O)c3cc(OCCc4ccccn4)nc(N4CCOCC4)n3)cc2c1C` [Compound 2, 2-Morpholin-4-yl-6-(2-pyridin-2-yl-ethoxy)-pyrimidine-4-carboxylic acid (2,3-dimethyl-1H-indol-5-yl)-amide]: the IC50 – broadly, the concentration needed to halve the response being measured – is less than 1000 nM. For `O=C(Nc1ccc2[nH]ccc2c1)c1cc(OCCc2ccccn2)nc(N2CCOCC2)n1` [Compound 4, 2-Morpholin-4-yl-6-(2-pyridin-2-yl-ethoxy)-pyrimidine-4-carboxylic acid (1H-indol-5-yl)-amide] the value was less than 1000 nM; for `Cc1cccc(NC(=O)c2cc(OCCc3ccccn3)nc(N3CCOCC3)n2)c1` [Compound 5, 2-Morpholin-4-yl-6-(2-pyridin-2-yl-ethoxy)-pyrimidine-4-carboxylic acid m-tolylamide], less than 1000 nM. For `Cc1cccc(NC(=O)Nc2cc(OCCN3CCOCC3)nc(N3CCOCC3)n2)c1` [Compound 9, 1-[2-Morpholin-4-yl-6-(2-morpholin-4-yl-ethoxy)-pyrimidin-4-yl]-3-m-tolyl-urea] the value was less than 1000 nM; for `CNCCOc1cc(NC(=O)Nc2cccc(C)c2)nc(N2CCOCC2)n1` [Compound 10, 1-[6-(2-Methylamino-ethoxy)-2-morpholin-4-yl-pyrimidin-4-yl]-3-m-tolyl-urea], less than 1000 nM; for `Cc1cccc(NC(=O)Nc2cc(OCC(C)(C)O)nc(N3CCOCC3)n2)c1` [Compound 11, 1-[6-(2-Hydroxy-2-methyl-propoxy)-2-morpholin-4-yl-pyrimidin-4-yl]-3-m-tolyl-urea], no less than 1000 nM. With `Cc1ccc(NC(=S)Nc2cc(N3CCOCC3)nc(OCCN3CCOCC3)n2)cc1` [Compound 12, 1-[6-Morpholin-4-yl-2-(2-morpholin-4-yl-ethoxy)-pyrimidin-4-yl]-3-p-tolyl-thiourea], the IC50 was no less than 1000 nM.

Regarding `Cc1[nH]c2ccc(NC(=O)c3cc(OCCN4CCOC4=O)nc(N4CCOCC4)n3)cc2c1C` [Compound 21, 2-Morpholin-4-yl-6-[2-(2-oxo-oxazolidin-3-yl)-ethoxy]-pyrimidine-4-carboxylic acid (2,3-dimethyl-1H-indol-5-yl)-amide], the IC50 was less than 1000 nM. As for `Cc1[nH]c2ccc(NC(=O)c3cc(N4CCOCC4)nc(N4CCOCC4)n3)cc2c1C` [Compound 22, 2,6-Di-morpholin-4-yl-pyrimidine-4-carboxylic acid (2,3-dimethyl-1H-indol-5-yl)-amide], the IC50 was less than 1000 nM.

In the case of `Cc1ccc(NC(=O)c2cc(OCCN3CCOCC3)nc(N3CCOCC3)n2)cc1C` [Compound 23, 2-Morpholin-4-yl-6-(2-morpholin-4-yl-ethoxy)-pyrimidine-4-carboxylic acid (3,4-dimethyl-phenyl)-amide], the IC50 is less than 1000 nM. With `Cc1c(C)n(C)c2ccc(NC(=O)c3cc(OCCN4CCOCC4)nc(N4CCOCC4)n3)cc12` [Compound 24, 2-Morpholin-4-yl-6-(2-morpholin-4-yl-ethoxy)-pyrimidine-4-carboxylic acid (1,2,3-trimethyl-1H-indol-5-yl)-amide], the half-inhibitory concentration (IC50) was less than 1000 nM. As for `NC(=O)c1cccc(NC(=O)c2cc(OCCN3CCOCC3)nc(N3CCOCC3)n2)c1` [Compound 25, 2-Morpholin-4-yl-6-(2-morpholin-4-yl-ethoxy)-pyrimidine-4-carboxylic acid (3-carbamoyl-phenyl)-amide], the IC50 was less than 1000 nM.

In the case of `CN(C)c1cccc(NC(=O)c2cc(OCCN3CCOCC3)nc(N3CCOCC3)n2)c1` [Compound 26, 2-Morpholin-4-yl-6-(2-morpholin-4-yl-ethoxy)-pyrimidine-4-carboxylic acid (3-dimethylamino-phenyl)-amide], the IC50 was less than 1000 nM. As for `Cc1[nH]c2ccc(NC(=O)c3cc(OCC[N+]4([O-])CCOCC4)nc(N4CCOCC4)n3)cc2c1C` [Compound 27, 2-Morpholin-4-yl-6-[2-(4-oxy-morpholin-4-yl)-ethoxy]-pyrimidine-4-carboxylic acid (2,3-dimethyl-1H-indol-5-yl)-amide], the IC50 was less than 1000 nM.
